Reference: US6369069B1 (Aventis Pharma Deutschland GmbH, priority 1998, dated 2002)

tested on: Na^+-dependent Cl^−/HCO3^− exchanger (NCBE); experiment: Inhibition of the Na+-dependent Cl−/HCO3− exchanger (NCBE) in human endothelial cells (pHi recovery, BCECF fluorescence, FLIPR); assay type: cell-based; conditions: 10 μM
Procedure, shortened: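 Fluorescence rise (FLIPR, 2 min, 35 °C) tracked pHi recovery in acid-loaded, BCECF-loaded ECV-304 cells after adding Na+- and HCO3−-containing buffer with 50 μM HOE 642 and graded compound doses. Inhibition was calculated against full-recovery and bicarbonate-free no-recovery controls.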

Compared with N#CNS(=O)(=O)c1ccccc1-c1ccc(CN(Cc2cccc(Cl)c2Cl)C(=O)Cc2cccs2)cc1 [Example 309], N#CNS(=O)(=O)c1ccccc1-c1ccc(CN(Cc2ccc(Cl)c(Cl)c2)C(=O)Cc2cccs2)cc1 [Example 259] is lower in “Residual activity % of the NCBE at 10 μM” value: 88.9% for the first, 40.1% for the second.

Compared with N#CNS(=O)(=O)c1ccccc1-c1ccc(CN(Cc2ccccc2)C(=O)Cc2cccs2)cc1 [Example 25], Cc1ccccc1CN(Cc1ccc(-c2ccccc2S(=O)(=O)NC#N)cc1)C(=O)Cc1cccs1 [Example 312] is lower in “Residual activity % of the NCBE at 10 μM” value: 16.6% for the first, 12.5% for the second.

Going from N#CNS(=O)(=O)c1ccccc1-c1ccc(CN(Cc2ccccc2Cl)C(=O)c2ccccc2Cl)cc1 [Example 101] to N#CNS(=O)(=O)c1ccccc1-c1ccc(CN(Cc2ccccc2Cl)C(=O)Cc2ccccc2Cl)cc1 [Example 291], the “Residual activity % of the NCBE at 10 μM” value falls from 62.6% to 23.7%.

Going from COc1cccc(CN(Cc2ccc(-c3ccccc3S(=O)(=O)NC#N)cc2)C(=O)NCc2ccccc2)c1 [Example 303] to COc1cccc(CC(=O)N(Cc2ccccc2)Cc2ccc(-c3ccccc3S(=O)(=O)NC#N)cc2)c1 [Example 19], the “Residual activity % of the NCBE at 10 μM” value falls from 65.8% to 25.9%.

Going from N#CNS(=O)(=O)c1ccccc1-c1ccc(CN(CCc2cccs2)C(=O)COc2ccccc2)cc1 [Example 165] to N#CNS(=O)(=O)c1ccccc1-c1ccc(CN(Cc2ccccc2Cl)C(=O)COc2ccccc2)cc1 [Example 167], the “Residual activity % of the NCBE at 10 μM” value falls from 56.8% to 47.5%.

Going from CCN(Cc1ccc(-c2ccccc2S(=O)(=O)NC#N)cc1)C(=O)CCCCc1cccs1 [Example 223] to COCCN(Cc1ccc(-c2ccccc2S(=O)(=O)NC#N)cc1)C(=O)CCCCc1cccs1 [Example 219], the “Residual activity % of the NCBE at 10 μM” value rises from 53.8% to 82.5%.

First: N#CNS(=O)(=O)c1ccccc1-c1ccc(CN(Cc2ccccc2Cl)C(=O)C(c2ccccc2)c2ccccc2)cc1 [Example 111]
Second: Cc1ccc(CN(Cc2ccc(-c3ccccc3S(=O)(=O)NC#N)cc2)C(=O)C(c2ccccc2)c2ccccc2)cc1 [Example 115]
The “Residual activity % of the NCBE at 10 μM” value of the first is lower: 80.5% for the first, 84.0% for the second.

Going from CC(C)(C)c1ccc(C(=O)N(Cc2ccccc2)Cc2ccc(-c3ccccc3S(=O)(=O)NC#N)cc2)cc1 [Example 31] to COc1ccc(CN(Cc2ccc(-c3ccccc3S(=O)(=O)NC#N)cc2)C(=O)c2ccc(C(C)(C)C)cc2)cc1 [Example 33], the “Residual activity % of the NCBE at 10 μM” value rises from 52.2% to 67.2%.

Compared with N#CNS(=O)(=O)c1ccccc1-c1ccc(CN(Cc2cccc3ccccc23)C(=O)Cc2ccccc2Cl)cc1 [Example 293], N#CNS(=O)(=O)c1ccccc1-c1ccc(CN(Cc2cccc3ccccc23)C(=O)CCS(=O)(=O)c2ccccc2)cc1 [Example 280] is higher in “Residual activity % of the NCBE at 10 μM” value: 55.1% for the first, 63.3% for the second.

Compared with N#CNS(=O)(=O)c1ccccc1-c1ccc(CN(Cc2ccc(C(F)(F)F)cc2)C(=O)c2cc3ccccc3s2)cc1 [Example 79], N#CNS(=O)(=O)c1ccccc1-c1ccc(CN(Cc2ccc3c(c2)OCO3)C(=O)c2cc3ccccc3s2)cc1 [Example 77] is higher in “Residual activity % of the NCBE at 10 μM” value: 61.7% for the first, 81.8% for the second.

Compared with CC(C)(C)OC(=O)C(c1ccccc1)N(Cc1ccc(-c2ccccc2S(=O)(=O)NC#N)cc1)C(=O)Cc1cccs1 (stereo not shown) [Example 269], COC(=O)C(Cc1ccccc1)N(Cc1ccc(-c2ccccc2S(=O)(=O)NC#N)cc1)C(=O)CCCc1cccs1 (stereo not shown) [Example 193] is lower in “Residual activity % of the NCBE at 10 μM” value: 94.4% for the first, 62.8% for the second.

First: Cc1cccc(CN(Cc2ccc(-c3ccccc3S(=O)(=O)NC#N)cc2)C(=O)CC2CCCC2)c1 [Example 361]
Second: Cc1cccc(CN(Cc2ccc(-c3ccccc3S(=O)(=O)NC#N)cc2)C(=O)CC2CCCCC2)c1 [Example 351]
The “Residual activity % of the NCBE at 10 μM” value of the first is higher: 29.4% for the first, 27.2% for the second.

First: N#CNS(=O)(=O)c1ccccc1-c1ccc(CN(CCOc2ccccc2)C(=O)Cc2ccc(Cl)cc2)cc1 [Example 151]
Second: N#CNS(=O)(=O)c1ccccc1-c1ccc(CN(Cc2ccccc2F)C(=O)CCOc2ccccc2)cc1 [Example 346]
The “Residual activity % of the NCBE at 10 μM” value of the first is lower: 29.0% for the first, 36.0% for the second.

First: N#CNS(=O)(=O)c1ccccc1-c1ccc(CN(Cc2ccccn2)C(=O)CCCCc2cccs2)cc1 [Example 220]
Second: N#CNS(=O)(=O)c1ccccc1-c1ccc(CN(CCCc2ccccc2)C(=O)CCCCc2cccs2)cc1 [Example 218]
The “Residual activity % of the NCBE at 10 μM” value of the first is lower: 73.2% for the first, 87.1% for the second.

Compared with N#CNS(=O)(=O)c1ccccc1-c1ccc(CN(Cc2cccs2)C(=O)NC2CCCCC2)cc1 [Example 296], N#CNS(=O)(=O)c1ccccc1-c1ccc(CN(Cc2ccccc2F)C(=O)CC2CCCCC2)cc1 [Example 356] is higher in “Residual activity % of the NCBE at 10 μM” value: 31.7% for the first, 47.4% for the second.

Compared with C#CCN(Cc1ccc(-c2ccccc2S(=O)(=O)NC#N)cc1)C(=O)C(=O)c1ccco1 [Example 248], C#CCN(Cc1ccc(-c2ccccc2S(=O)(=O)NC#N)cc1)C(=O)CCCCc1ccccc1 [Example 247] is higher in “Residual activity % of the NCBE at 10 μM” value: 66.6% for the first, 74.6% for the second.

First: CC(C)(C)CC(=O)N(Cc1ccc(-c2ccccc2S(=O)(=O)NC#N)cc1)Cc1ccco1 [Example 158]
Second: CN(Cc1ccc(-c2ccccc2S(=O)(=O)NC#N)cc1)C(=O)Cc1ccsc1 [Example 230]
The “Residual activity % of the NCBE at 10 μM” value of the first is lower: 57.9% for the first, 68.6% for the second.

Going from CCCC(=O)N(CCO)Cc1ccc(-c2ccccc2S(=O)(=O)NC#N)cc1 [Example 2] to COCCN(Cc1ccc(-c2ccccc2S(=O)(=O)NC#N)cc1)C(=O)Cc1c[nH]c2ccccc12 [Example 203], the “Residual activity % of the NCBE at 10 μM” value falls from 78.1% to 30.3%.

Compared with N#CNS(=O)(=O)c1ccccc1-c1ccc(CN(Cc2ccncc2)C(=O)Cc2ccc(Cl)cc2)cc1 [Example 156], N#CNS(=O)(=O)c1ccccc1-c1ccc(CN(Cc2ccc3c(c2)OCO3)C(=O)Cc2ccccc2)cc1 [Example 127] is lower in “Residual activity % of the NCBE at 10 μM” value: 86.0% for the first, 61.7% for the second.

First: N#CNS(=O)(=O)c1ccccc1-c1ccc(CN(C(=O)Cc2csc3ccccc23)C2CC2)cc1 [Example 213]
Second: N#CNS(=O)(=O)c1ccccc1-c1ccc(CN(C(=O)Cc2c[nH]c3ccccc23)C2CC2)cc1 [Example 205]
The “Residual activity % of the NCBE at 10 μM” value of the first is higher: 45.0% for the first, 41.7% for the second.

First: N#CNS(=O)(=O)c1ccccc1-c1ccc(CN(Cc2cccc(-c3ccccc3)c2)C(=O)CCOc2ccccc2)cc1 [Example 347]
Second: Cc1cccc(CN(Cc2ccc(-c3ccccc3S(=O)(=O)NC#N)cc2)C(=O)CCOc2ccccc2)c1 [Example 341]
The “Residual activity % of the NCBE at 10 μM” value of the first is lower: 19.3% for the first, 44.6% for the second.

Going from N#CNS(=O)(=O)c1ccccc1-c1ccc(CN(Cc2ccc(Cl)c(Cl)c2)C(=O)CCC2CCCCC2)cc1 [Example 264] to N#CNS(=O)(=O)c1ccccc1-c1ccc(CN(Cc2cccc(Cl)c2Cl)C(=O)CC2CCCCC2)cc1 [Example 349], the “Residual activity % of the NCBE at 10 μM” value falls from 74.3% to 50.4%.

Going from N#CNS(=O)(=O)c1ccccc1-c1ccc(CN(C(=O)Cc2cccs2)C2CCc3ccccc32)cc1 (stereo not shown) [Example 314] to N#CNS(=O)(=O)c1ccccc1-c1ccc(CN(CCc2ccc(S(N)(=O)=O)cc2)C(=O)Cc2cccs2)cc1 [Example 272], the “Residual activity % of the NCBE at 10 μM” value rises from 14.4% to 65.0%.

First: N#CNS(=O)(=O)c1ccccc1-c1ccc(CN(CCc2ccc(S(N)(=O)=O)cc2)C(=O)Cc2ccccc2Cl)cc1 [Example 294]
Second: COC(=O)C(Cc1ccccc1)N(Cc1ccc(-c2ccccc2S(=O)(=O)NC#N)cc1)C(=O)Cc1csc2ccccc12 (stereo not shown) [Example 217]
The “Residual activity % of the NCBE at 10 μM” value of the first is higher: 82.7% for the first, 46.0% for the second.

Going from CC(C)=CCCC(C)=CCN(Cc1ccc(-c2ccccc2S(=O)(=O)NC#N)cc1)C(=O)Cc1cccs1 [Example 313] to C[C@H](c1ccccc1)N(Cc1ccc(-c2ccccc2S(=O)(=O)NC#N)cc1)C(=O)c1ccccc1F [Example 98], the “Residual activity % of the NCBE at 10 μM” value rises from 17.2% to 98.0%.

COc1ccccc1C(=O)N(Cc1ccc(-c2ccccc2S(=O)(=O)NC#N)cc1)Cc1cccc(-c2ccccc2)c1 [Example 337] was tested, and the “Residual activity % of the NCBE at 10 μM” value was 51.2%.

same assay, conditions: compound at 10 μM; R(3) to R(7) hydrogen series

Compared with CC(C(=O)N(Cc1ccc(-c2ccccc2S(=O)(=O)NC#N)cc1)CC1CC(C(=O)N2CCCC2)=NO1)c1cccs1 (stereo not shown) [Example 397], CC(C(=O)N(Cc1ccccc1)Cc1ccc(-c2ccccc2S(=O)(=O)NC#N)cc1)c1ccsc1 (stereo not shown) [Example 388] is higher in “Residual activity % of the NCBE at 10 μM” value: 44.0% for the first, 63.7% for the second.

same assay, conditions: compound at 10 μM; sub-table with R7 substituent

First: Cc1ccc(-c2ccc(CN(Cc3cccc(Cl)c3Cl)C(=O)Cc3ccc(Cl)cc3)cc2)c(S(=O)(=O)NC#N)c1 [Example 536]
Second: Cc1ccc(-c2ccc(CN(Cc3cccc4ccccc34)C(=O)Cc3ccc(Cl)cc3)cc2)c(S(=O)(=O)NC#N)c1 [Example 530]
The “Residual activity % of the NCBE at 10 μM” value of the first is lower: 76.3% for the first, 89.8% for the second.

Going from Cc1ccc(-c2ccc(CN(Cc3ccccc3)C(=O)CC3CCCCC3)cc2)c(S(=O)(=O)NC#N)c1 [Example 545] to Cc1ccc(-c2ccc(CN(CCc3ccccc3)C(=O)CC3CCCCC3)cc2)c(S(=O)(=O)NC#N)c1 [Example 550], the “Residual activity % of the NCBE at 10 μM” value falls from 70.1% to 63.3%.

Going from N#CNS(=O)(=O)c1ccc(Cl)cc1-c1ccc(CN(Cc2ccccc2)C(=O)Cc2cccs2)cc1 [Example 553] to Cc1ccc(-c2ccc(CN(Cc3ccccc3)C(=O)C(C)c3cccs3)cc2)c(S(=O)(=O)NC#N)c1 (stereo not shown) [Example 521], the “Residual activity % of the NCBE at 10 μM” value rises from 85.7% to 88.2%.

Compared with Cc1ccc(-c2ccc(CN(Cc3ccccc3Cl)C(=O)Cc3ccsc3)cc2)c(S(=O)(=O)NC#N)c1 [Example 540], Cc1ccc(-c2ccc(CN(Cc3cccs3)C(=O)CC3CCCCC3)cc2)c(S(=O)(=O)NC#N)c1 [Example 549] is higher in “Residual activity % of the NCBE at 10 μM” value: 64.6% for the first, 67.3% for the second.
